From the Kinase Knowledgebase extract (Sharma et al. 2016)

Experiments:
MAPK14 (human) [1] = biological target: MAPK14 (human) (UniProt Q16539); test: Inhibition of TNF-alpha Release in LPS Stimulated Whole Blood Cells
MAPK14 (human) [2] = biological target: MAPK14 (human) (UniProt Q16539); test: Inhibition of IL-1 beta Release in LPS Stimulated Whole Blood Cells
MAPK14 (human) [3] = biological target: MAPK14 (human) (UniProt Q16539); test: Inhibition of MAPK14 Kinase Activity
MAPK14 (human) [4] = biological target: MAPK14 (human) (UniProt Q16539); test: Inhibition of IL-6 Release in LPS Stimulated Whole Blood Cells
MAPK14 (human) [5] = biological target: MAPK14 (human) (UniProt Q16539); test: Inhibition of IL-1beta Production in LPS Stimulated PBMC
MAPK14 (human) [6] = biological target: MAPK14 (human) (UniProt Q16539); test: Inhibition of TNF-alpha Production in LPS Stimulated PBMC

Sequence of MAPK14 (human) (Q16539 whole entry, looked up): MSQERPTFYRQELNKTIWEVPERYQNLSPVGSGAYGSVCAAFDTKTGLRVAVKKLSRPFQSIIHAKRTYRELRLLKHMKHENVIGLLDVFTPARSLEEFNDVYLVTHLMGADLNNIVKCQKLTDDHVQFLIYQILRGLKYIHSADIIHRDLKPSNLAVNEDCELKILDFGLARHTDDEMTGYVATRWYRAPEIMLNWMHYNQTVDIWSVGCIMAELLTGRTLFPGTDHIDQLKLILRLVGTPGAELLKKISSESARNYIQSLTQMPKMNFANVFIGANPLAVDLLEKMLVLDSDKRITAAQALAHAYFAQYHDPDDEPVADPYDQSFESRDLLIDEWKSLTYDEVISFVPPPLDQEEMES

Question: Which IC50 (MAPK14 (human) [1]) does the source give for `CN(C)C=NC(=O)OCc1ccc(N(C(=O)N=CN(C)C)c2c(F)cccc2F)nc1-c1ccc(F)cc1F` here?
Answer: 4300 nM

Question: What about the IC50 (MAPK14 (human) [2]) of the same molecule?
Answer: 2200 nM

Question: And the IC50 (MAPK14 (human) [3])?
Answer: 5000 nM

Question: And the IC50 (MAPK14 (human) [4])?
Answer: 800 nM

Question: `CC(C)[C@H](N)C(=O)OCCNC(=O)OCc1ccc(N(C(N)=O)c2c(F)cccc2F)nc1-c1ccc(F)cc1F` was tested. Which IC50 (MAPK14 (human) [1]) did it give?
Answer: 55 nM

Question: And the IC50 (MAPK14 (human) [2])?
Answer: 140 nM

Question: And the IC50 (MAPK14 (human) [3])?
Answer: 31 nM

Question: What about the IC50 (MAPK14 (human) [5]) of the same molecule?
Answer: 12 nM

Question: What about the IC50 (MAPK14 (human) [6]) of the same molecule?
Answer: 22 nM

Question: And the IC50 (MAPK14 (human) [4])?
Answer: 83 nM

Question: For `CN(C)C=NC(=O)OCc1ccc(N(C(N)=O)c2c(F)cccc2F)nc1-c1ccc(F)cc1F`, which IC50 (MAPK14 (human) [1]) is on record?
Answer: 20000 nM

Question: What about the IC50 (MAPK14 (human) [2]) of the same molecule?
Answer: 12200 nM

Question: And the IC50 (MAPK14 (human) [3])?
Answer: 1000 nM

Question: What about the IC50 (MAPK14 (human) [5]) of the same molecule?
Answer: 50 nM

Question: And the IC50 (MAPK14 (human) [6])?
Answer: 50 nM

Question: And the IC50 (MAPK14 (human) [4])?
Answer: 11000 nM
